Experimental data reported in patent US6531508B1, “Antibacterial medicinal compositions” (priority 1999, dated 2003).

Columns and labels:
Porphyromonas gingivalis = conditions: reported in the literature; cited from earlier work
[1] = system: methicillin-sensitive Staphylococcus aureus (MSSA), Streptococcus pyrogenes and Streptococcus pneumoniae, penicillin-resistant pneumococci (PRSP), oral …; conditions: reported in the literature; gram-positive bacteria incl. strains where conventional β-lactams are ineffective; cited from earlier work
[2] = Gastrointestinal absorption of compound 1 after oral administration (plasma AUC); type: in vivo, Sprague-Dawley rats; conditions: rat; for AUC: male, Sprague-Dawley, compound 1 as free acid in plasma
Protocol: Seven-week old male Sprague-Dawley rats orally received 70.5 mg/kg (57.1 mg (potency)/kg) of compound 1 and 57.1 mg/kg of disodium ethylenediaminetetraacetate. Controls orally received 70.5 mg/kg of compound 1 alone. At 0.1-10 hours after administration, blood was collected. The concentration of compound 1 as free acid in plasma was determined by high-performance liquid chromatography. For determination, plasma was used after pretreatment. That is, 0.2 mL of plasma was stirred with 0.2 mL of acetonitrile and then centrifuged at 4° C., 12000 rpm for 15 min. Two hundreds μL of this supernatant was diluted in 800 μL of 10 mM phosphate buffer, and 200 μL of this dilution was applied on a high-performance liquid chromatography column. The chromatography conditions were as follows. A stainless steel high-performance liquid chromatographic column packed with octadecylsilyl silica gel was used. The column temperature was room temperature. The mobile phase consisted of a binder containing 680 mL of a 20 mM aqueous sodium dihydrogenphosphate solution adjusted at pH 2 with phosphoric acid and 320 mL of acetonitrile. The flow rate was controlled at 1 mL/min. For detection, a UV absorption spectrometer was used at a wavelength of 318 nm.

[3] = system: bacterial strains from dental infectious diseases; conditions: reported in the literature; increasingly resistant strains; cited from earlier work

Change of AUC versus control group ([2]; group coadministered with disodium ethylenediaminetetraacetate compared with compound 1 alone): approximately doubled | AUC ([2]; 70.5 mg/kg compound 1 with 57.1 mg/kg disodium ethylenediaminetetraacetate): 24.8 ± 9.3 µg·h/mL | AUC ([2]; control group: 70.5 mg/kg compound 1 alone): 12.6 ± 5.7 µg·h/mL
Structure (SMILES): C[C@@H](O)[C@H]1C(=O)N2C(C(=O)O)=C([C@H]3CCCO3)S[C@H]12 [compound 1, Sodium (+)-(5R,6S)-6-[(R)-1-hydroxyethyl]-7-oxo-3-[(R)-2-tetrahydrofuryl]-4-thia-1-azabicyclo[3.2.0]hept-2-ene-2-carboxylate 5/2 hydrate]
Antibacterial activity (Porphyromonas gingivalis): potent antibacterial activity | Antibacterial activity [1]: potent antibacterial activity | Antibacterial activity [3]: potent antibacterial activity
